The source made the active and inactive calls. The calls are words filed in the database; no cut-off is given here.
Legend:
Escherichia coli [1] = experiment: Antibacterial activity against Escherichia coli ATCC 25922 after 18 hrs in presence of NaCl by CLSI based broth microdilution method (reference value: 8 microM); format: functional; details: ATCC 25922, 18 h
[2] = Cytotoxicity against mouse RAW264.7 cells assessed as cell proliferation at 4 uM after 1 hr by MTT assay relative to control; format: cell-based; details: read-out: Activity
Staphylococcus aureus [3] = experiment: Antibacterial activity against Staphylococcus aureus ATCC 25923 after 18 hrs in presence of FeCl3 by CLSI based broth microdilution method (reference value: 8 microM); format: functional; details: ATCC 25923, 18 h
DNA = experiment: Binding affinity to Escherichia coli ATCC 25922 genomic DNA at 8 x MIC after 30 mins by agarose gel electrophoresis; format: nucleic-acid assay
Staphylococcus aureus [4] = experiment: Antibacterial activity against Staphylococcus aureus ATCC 25923 after 18 hrs in presence of MgCl2 by CLSI based broth microdilution method (reference value: 8 microM); format: functional; details: ATCC 25923, 18 h
Escherichia coli [5] = experiment: Ratio of MIC for Escherichia coli ATCC 25922 preincubated for 1 hr in presence of 10% mouse serum and measured after 18 hrs to MIC for antibacterial activity against Escherichia coli ATCC 25922 after 18 hrs; format: functional
Staphylococcus aureus [6] = experiment: Antibiofilm activity against Staphylococcus aureus ATCC 25923 at 1 to 2 times of MIC after 24 hrs by crystal violet staining based assay; format: functional, organism-based
Escherichia coli [7] = experiment: Antibacterial activity against Escherichia coli ATCC 25922 at 0.5 times MIC incubated for 18 hrs measured for 15 passages by CLSI based broth microdilution method; format: functional, organism-based
Escherichia coli [8] = experiment: Antibacterial activity against Escherichia coli ATCC 25922 after 18 hrs in presence of KCl by CLSI based broth microdilution method (reference value: 8 microM); format: functional; details: ATCC 25922, 18 h
Escherichia coli [9] = experiment: Antimicrobial activity against Escherichia coli ATCC 25922 preincubated for 6 hrs in presence of 10% mouse serum and measured after 18 hrs by CLSI-based broth microdilution assay (reference value: 8 microM); format: functional
Escherichia coli [10] = experiment: Antibacterial activity against Escherichia coli ATCC 25922 after 18 hrs in presence of FeCl3 by CLSI based broth microdilution method (reference value: 8 microM); format: functional; details: ATCC 25922, 18 h
Klebsiella pneumoniae = experiment: Potentiation of rifampicin-induced antibacterial activity against Klebsiella pneumoniae ATCC 700603 assessed as FICI after 18 hrs by checker board assay; format: functional
Escherichia coli [11] = experiment: Antibacterial activity against Escherichia coli ATCC 25922 after 18 hrs in presence of MgCl2 by CLSI based broth microdilution method (reference value: 8 microM); format: functional; details: ATCC 25922, 18 h
Escherichia coli [12] = experiment: Antibiofilm activity against Escherichia coli ATCC 25922 assessed as reduction in biofilm inhibition at MIC after 24 hrs by crystal violet staining based assay relative to control; format: functional
Staphylococcus aureus [13] = experiment: Antibacterial activity against Staphylococcus aureus ATCC 25923 after 18 hrs in presence of NaCl by CLSI based broth microdilution method (reference value: 8 microM); format: functional; details: ATCC 25923, 18 h
Escherichia coli [14] = experiment: Induction of membrane disruption in Escherichia coli ATCC 25922 assessed as fracture in membrane at 4 times of MIC after 2 hrs by SEM analysis; format: functional, organism-based
Escherichia coli [15] = experiment: Antimicrobial activity against Escherichia coli ATCC 25922 preincubated for 1 hr in presence of 10% mouse serum and measured after 18 hrs by CLSI-based broth microdilution assay (reference value: 8 microM); format: functional
Escherichia coli [16] = experiment: Antimicrobial activity against Escherichia coli ATCC 25922 at 1 mM preincubated for 6 hrs in presence of 2 ug/ml chymotrypsin and measured after 18 hrs by microplate reader analysis; format: functional, organism-based
Staphylococcus aureus [17] = experiment: Antibacterial activity against Staphylococcus aureus ATCC 25923 after 18 hrs in presence of KCl by CLSI based broth microdilution method (reference value: 8 microM); format: functional; details: ATCC 25923, 18 h
Staphylococcus aureus [18] = experiment: Antibiofilm activity against Staphylococcus aureus ATCC 25923 at 2 times of MIC after 24 hrs by crystal violet staining based assay; format: functional, organism-based
Escherichia coli [19] = experiment: Antibacterial activity against Escherichia coli ATCC 25922 after 18 hrs in presence of NaCl by CLSI based broth microdilution method (reference value: 16 microM); format: functional; details: ATCC 25922, 18 h
Escherichia coli [20] = experiment: Antimicrobial activity against Escherichia coli ATCC 25922 preincubated for 1 hr in presence of 10% mouse serum and measured after 18 hrs by CLSI-based broth microdilution assay (reference value: 16 microM); format: functional
Escherichia coli [21] = experiment: Antibacterial activity against Escherichia coli ATCC 25922 after 18 hrs in presence of MgCl2 by CLSI based broth microdilution method (reference value: 16 microM); format: functional; details: ATCC 25922, 18 h
Escherichia coli [22] = experiment: Antibiofilm activity against Escherichia coli ATCC 25922 assessed as reduction in biofilm inhibition at 0.5 to 1 times of MIC after 24 hrs by crystal violet staining based assay; format: functional, organism-based
Escherichia coli [23] = experiment: Antibacterial activity against Escherichia coli ATCC 25922 after 18 hrs in presence of FeCl3 by CLSI based broth microdilution method (reference value: 16 microM); format: functional; details: ATCC 25922, 18 h
[24] = Cytotoxicity against mouse RAW264.7 cells assessed as cell proliferation at 16 uM after 1 hr by MTT assay relative to control; format: cell-based; details: read-out: Activity
Escherichia coli [25] = experiment: Antimicrobial activity against Escherichia coli ATCC 25922 preincubated for 6 hrs in presence of 10% mouse serum and measured after 18 hrs by CLSI-based broth microdilution assay (reference value: 16 microM); format: functional
Escherichia coli [26] = experiment: Antibacterial activity against Escherichia coli ATCC 25922 after 18 hrs in presence of KCl by CLSI based broth microdilution method (reference value: 16 microM); format: functional; details: ATCC 25922, 18 h
[27] = Hemolytic activity in human RBC at 256 uM measured after 1 hr by microplate reader analysis relative to control; format: ADME, cell-based, Erythrocyte; details: human red blood cells (erythrocytes), read-out: Activity
Staphylococcus aureus [28] = experiment: Antibacterial activity against Staphylococcus aureus ATCC 25923 after 18 hrs in presence of FeCl3 by CLSI based broth microdilution method (reference value: 64 microM); format: functional; details: ATCC 25923, 18 h

SMILES | MIC (Escherichia coli [1]) [µM] | MIC (Staphylococcus aureus [3]) [µM] | MIC (Staphylococcus aureus [4]) [µM] | Ratio (Escherichia coli [5]) | inhibition (Staphylococcus aureus [6]) | Activity (Escherichia coli [7]) | MIC (Escherichia coli [8]) [µM] | MIC (Escherichia coli [9]) [µM] | MIC (Escherichia coli [10]) [µM] | fractional inhibitory concentration index (FICI) (Klebsiella pneumoniae) | MIC (Escherichia coli [11]) [µM] | inhibition (INH) (Escherichia coli [12]) [%] | MIC (Staphylococcus aureus [13]) [µM] | Activity (Escherichia coli [14]) | MIC (Escherichia coli [15]) [µM] | Activity (Escherichia coli [16]) | MIC (Staphylococcus aureus [17]) [µM] | other results
CCCCCCCCCCCC(=O)NC(Cc1cn(CCCC[C@H](NC(C)=O)C(=O)NCC(=O)N[C@@H](CC(C)C)C(=O)N[C@@H](CC(C)C)C(=O)N[C@H](CCCCN)C(=O)N[C@@H](CCCNC(=N)N)C(=O)N[C@H](C(=O)N[C@H](CCCCN)C(=O)N[C@H](C(=O)N[C@@H](CC(C)C)C(=O)N[C@@H](CC(C)C)C(N)=O)[C@@H](C)O)[C@@H](C)CC)nn1)C(=O)NCC(=O)N[C@@H](CC(C)C)C(=O)N[C@@H](CC(C)C)C(=O)N[C@H](CCCCN)C(=O)N[C@@H](CCCNC(=N)N)C(=O)N[C@H](C(=O)N[C@H](CCCCN)C(=O)N[C@H](C(=O)N[C@@H](CC(C)C)C(=O)N[C@@H](CC(C)C)C(N)=O)[C@@H](C)O)[C@@H](C)CC (some centres not stated) | 16 | 16 | 8 | 2 | Active | Active | 16 | 32 | 4 | 0.5 | 32 | >50 | 8 | Active | 16 | Active | 16 | viability at 1 h, 4 µM [2]: < 80%; Activity (DNA): inactive
CCCCCCCCCC(=O)NCC(=O)N[C@@H](CC(C)C)C(=O)N[C@@H](CC(C)C)C(=O)N[C@H](CCCCN)C(=O)N[C@@H](CCCNC(=N)N)C(=O)N[C@H](C(=O)N[C@H](CCCCN)C(=O)N[C@H](C(=O)N[C@@H](CC(C)C)C(=O)N[C@@H](CC(C)C)C(N)=O)[C@@H](C)O)[C@@H](C)CC |  | 8 | 8 | 1 |  | Active |  |  |  | 0.3125 |  |  | 8 | Active |  | Active | 8 | inhibition (Staphylococcus aureus [18]): Active; MIC (Escherichia coli [19]): 32 µM; MIC (Escherichia coli [20]): 16 µM; MIC (Escherichia coli [21]): 16 µM; inhibition (Escherichia coli [22]): Active; MIC (Escherichia coli [23]): 8 µM; viability at 1 h, 16 µM [24]: < 80%; MIC (Escherichia coli [25]): 16 µM; MIC (Escherichia coli [26]): 16 µM
CCCCCC(=O)NC(Cc1cn(CCCC[C@H](NC(C)=O)C(=O)NCC(=O)N[C@@H](CC(C)C)C(=O)N[C@@H](CC(C)C)C(=O)N[C@H](CCCCN)C(=O)N[C@@H](CCCNC(=N)N)C(=O)N[C@H](C(=O)N[C@H](CCCCN)C(=O)N[C@H](C(=O)N[C@@H](CC(C)C)C(=O)N[C@@H](CC(C)C)C(N)=O)[C@@H](C)O)[C@@H](C)CC)nn1)C(=O)NCC(=O)N[C@@H](CC(C)C)C(=O)N[C@@H](CC(C)C)C(=O)N[C@H](CCCCN)C(=O)N[C@@H](CCCNC(=N)N)C(=O)N[C@H](C(=O)N[C@H](CCCCN)C(=O)N[C@H](C(=O)N[C@@H](CC(C)C)C(=O)N[C@@H](CC(C)C)C(N)=O)[C@@H](C)O)[C@@H](C)CC (some centres not stated) | 32 |  |  | 1 | Active | Active | 16 | 16 | 4 | 0.5625 | 16 | >50 |  | Active | 8 | Active |  | hemolysis at 1 h, 256 µM [27]: < 5%; MIC (Staphylococcus aureus [28]): 32 µM

From ChEMBL document CHEMBL4359906, “Design and synthesis of new N-terminal fatty acid modified-antimicrobial peptide analogues with potent in vitro biological activity” (Eur J Med Chem, 2019)
